Patent US7169815B2, “3-methoxybenzyl thiourea derivatives and improved lipid compositions containing same” (The United States of America as represented by the …, priority 2000, dated 2007)

What was measured:
[1] = Decomposition temperature by differential scanning calorimetry; format: physicochemical; details: DSC, onset of decrease in slope of temperature-heat flow curve; unit not given (scans in ° C.)
Protocol: A dual cell Perkin Elmer differential scanning calorimeter (PE DSC 7, Norwalk, Conn.) was used to determine the thermal transitions of the compounds. All scans were carried out from 30° C. to 200° C. at a heating and cooling rate of 10° C./minute and 40° C./min, respectively, except for 1-(3-methoxybenzyl)-3-(1-propenyl) thiourea, for which the scans were carried out from 0° C. to 200° C. at a heating rate of 10° C./min, and 1-(3-methoxybenzyl)-3-octadecyl thiourea, for which both the heating and cooling rates were 10° C./min. 1,3-di(3-methoxybenzyl) thiourea and 1-(3-methoxybenzyl)-3-dodecyl thiourea were heated to 300° C., and 1-(3-methoxybenzyl)-3-(4-methoxybenzoyl) thiourea was heated to 250° C. to determine the decomposition temperature. The decomposition temperature was taken as the onset of a decrease in the slope of the temperature-heat flow DSC curve. The first heating curve was recorded in all cases, and liquid nitrogen was used to quench the samples after the first heating.

[2] = OSI test of milkweed seed oil mixed with additive; details: 1.0% additive, 130° C.
Source text: A presently preferred method of determining oxidative stability of lipids and oils employs the Oxidative Stability Index (OSI), which determines the oxidative stability of an oil by passing air through a sample under stringent temperature control. (Firestone, Oxidative Stability Index (OSI): Official Methods of Recommended Practices of the American Oil Chemists' Society (AOCS), 4th Ed. American Oil Chemists Society, Champaign, Ill., AOCS Official Method Cd 12b-92, 1993.) In this method, a stream of air is passed through the oil sample, which aids in the rapid degradation of the triglyceride into volatile organic acids. The air stream flushes the volatile acids from the oil into a conductivity cell containing water where the acids are solubilized. These acids, once dissolved in the water solution, disassociate into ions, thus changing the conductivity of the water. Therefore, a continuous measure of the conductivity of the cell by computer will indicate when a rapid rise in the conductivity occurs that corresponds to the induction point, oxidative failure of the sample. […]
Unless otherwise stated, Oxidative Stability Index (OSI) values were determined on 5.00 ±0.05 g lipid or oil samples in triplicate according to AOCS Official Method Cd 12b-92 (AOCS, 1993) at 90° C., 110° C. and/or 130° C. on an oxidative stability instrument manufactured by Omnion (Rockland, Mass.). […]

[3] = OSI test of unrefined (crude) meadowfoam seed oil, alone or mixed with additive; details: 110° C.
Source text: (§1) A presently preferred method of determining oxidative stability of lipids and oils employs the Oxidative Stability Index (OSI), which determines the oxidative stability of an oil by passing air through a sample under stringent temperature control. (Firestone, Oxidative Stability Index (OSI): Official Methods of Recommended Practices of the American Oil Chemists' Society (AOCS), 4th Ed. American Oil Chemists Society, Champaign, Ill., AOCS Official Method Cd 12b-92, 1993.) In this method, a stream of air is passed through the oil sample, which aids in the rapid degradation of the triglyceride into volatile organic acids. The air stream flushes the volatile acids from the oil into a conductivity cell containing water where the acids are solubilized. These acids, once dissolved in the water solution, disassociate into ions, thus changing the conductivity of the water. Therefore, a continuous measure of the conductivity of the cell by computer will indicate when a rapid rise in the conductivity occurs that corresponds to the induction point, oxidative failure of the sample. The time to the induction point is the OSI time. […] Saturated fatty acid methyl ester (FAME) standards commercially available from Alltech Associates (Deerfield, Ill.) may be used to calibrate the OSI determinations.
(§2) OSI determinations may be performed on an oxidative stability instrument manufactured by Omnion (Rockland, Mass.) using the AOCS method described in the above-disclosed Firestone reference. Lipid or oil samples may be run at 110° C. and FAMEs may be tested at 90° C., with air flow set at 35 kPa with a resulting velocity of about 140 ml/min. A presently preferred method for determining OSI values is described by T. A. Isbell et al., “Oxidative Stability Index of Vegetable Oils in Binary Mixtures with Meadowfoam Oil,” Industrial Crops and Products 9, 115–123 (1999).
(§3) Unless otherwise stated, Oxidative Stability Index (OSI) values were determined on 5.00 ±0.05 g lipid or oil samples in triplicate according to AOCS Official Method Cd 12b-92 (AOCS, 1993) at 90° C., 110° C. and/or 130° C. on an oxidative stability instrument manufactured by Omnion (Rockland, Mass.). Details of the procedure have been published by Isbell et al., “Oxidative Stability Index of Vegetable Oils in Binary Mixtures with Meadowfoam Oil,” Ind. Crops Prod. 9, 115–123 (1999). When compounds of the present invention were added to the lipid or oil sample being tested, the compounds (0.1% to 1.0% by weight) were added to the test lipid or oil (20 g) and dissolved or dispersed at room temperature before triplicate 5.00 g samples of lipid or oil with an added compound of the invention were weighed into the OSI test tube. […]

[4] = Oxidative Stability Index (OSI) of refined meadowfoam seed oil plus additives; details: 130° C.; for increase in the OSI time: refined meadowfoam seed oil, versus oil with no additives
Source text: as §1, §2
Unless otherwise stated, Oxidative Stability Index (OSI) values were determined on 5.00 ±0.05 g lipid or oil samples in triplicate according to AOCS Official Method Cd 12b-92 (AOCS, 1993) at 90° C., 110° C. and/or 130° C. on an oxidative stability instrument manufactured by Omnion (Rockland, Mass.). Details of the procedure have been published by Isbell et al., “Oxidative Stability Index of Vegetable Oils in Binary Mixtures with Meadowfoam Oil,” Ind. Crops Prod. 9, 115–123 (1999). When compounds of the present invention were added to the lipid or oil sample being tested, the compounds (0.1% to 1.0% by weight) were added to the test lipid or oil (20 g) and dissolved or dispersed at room temperature before triplicate 5.00 g samples of lipid or oil with an added compound of the invention were weighed into the OSI test tube.
The 1,3-di(3-methoxybenzyl) thiourea prepared in Example 3 was mixed at 0.1%, 0.5% or 1.0% with refined meadowfoam seed oil (Lot #CW-4551, The Fanning Corp) and the oxidative stability of the mixtures was compared to that of refined meadowfoam seed oil at 130° C. The OSI times were 49.8 h, 159 h and 172 h, respectively, for the mixtures containing the thiourea compared to an OSI time of 14.9 h for this lot of refined meadowfoam seed oil with no additives at 130° C.
Thus, 1,3-bis(2-methoxyphenyl)-2-thiourea (Aldrich Chem Co.) added at 0. […] Likewise, 1,3-bis(3-methoxyphenyl)-2-thiourea at 0. 1% added to refined meadowfoam oil gave an OSI time of 27.0 h, an […] lower value than for the 1,3-di-(3-methoxybenzyl) thiourea produced in Example 3.

[5] = OSI test of jojoba oil mixed with additive; details: 110° C.
Source text: as §1, §2, §3

[6] = Behaviour on addition of water to DMSO solution (sample preparation); format: physicochemical; details: dissolved in 50 μl DMSO, water added to make 1 mg/ml
Protocol: Test compounds (1–2 mg) were originally made up at a concentration of 1 mg/ml in artificial seawater, except for water insoluble compounds, which were dissolved in 50 μl of dimethyl sulfoxide (DMSO) prior to adding enough water to make a 1 mg/ml solution. Serial dilutions were performed in 100 μl of seawater in triplicate in the wells of a 96-well microplate to give appropriate concentrations. Control wells for both water and DMSO were included with each experiment. A 100 μl solution of naupli (10–30) was added to each well, and the covered plate was incubated for 24 h at 27° C. The number of non-motile, and the total number of, naupli were counted in each well using a binocular microscope (10×). LC50 values were then calculated by Probit analysis (Finney, D. J., 1971, “Probit Analysis,” 3rd Ed.; University Press: Cambridge [Eng.]).

Decomposition Temperature [1]: 265 °C
behaviour upon the addition of water [6]: precipitated out of solution
Compound: COc1cccc(CNC(=S)NCc2cccc(OC)c2)c1 [1,3-di(3-methoxybenzyl) thiourea]
OSI Time [2]: 2.78 h
improvement of OSI time compared to milkweed oil alone [2]: 654%
OSI Time ([3]; 0.1% additive): 76.4 h
improvement of OSI time compared to meadowfoam oil alone ([3]; 0.1% additive): 15%
OSI Time ([3]; 1% additive): 211 h
improvement of OSI time compared to meadowfoam oil alone ([3]; 1% additive): 218%
OSI Time ([4]; refined meadowfoam seed oil Lot #CW-4551, 0.1% additive): 49.8 h
OSI Time ([4]; refined meadowfoam seed oil Lot #CW-4551, 0.5% additive): 159 h
OSI Time ([4]; refined meadowfoam seed oil Lot #CW-4551, 1.0% additive): 172 h
OSI Time ([4]; refined meadowfoam seed oil plus additive 0.1%): 49.8 h
OSI Time ([4]; refined meadowfoam seed oil plus additive 0.5%): 159 h
OSI Time ([4]; refined meadowfoam seed oil plus additive 1.0%): 172 h
increase in the OSI time ([4]; 0.1% additive): 234%
increase in the OSI time ([4]; 0.5% additive): 967%
increase in the OSI time ([4]; 1.0% additive): 1054%
OSI Time ([5]; 0.1% additive): 64.2 h
improvement of OSI time compared to jojoba oil alone ([5]; 0.1% additive): 30%
OSI Time ([5]; 1% additive): 168 h
improvement of OSI time compared to jojoba oil alone ([5]; 1% additive): 241%
